Data on 2 molecules can be found in ChEMBL document CHEMBL3217422, “Design of membrane targeting tobramycin-based cationic amphiphiles with reduced hemolytic activity” (Medchemcomm, 2013).

The MIC is the least concentration at which growth counts as inhibited.

The nature of data set [1]: Induction of hemolysis in rat RBC assessed as hemoglobin release at 128 ug/ml after 1 hr by microplate reader analysis. Conditions: red blood cells, read-out: Activity. The class given is cell-based, Erythrocyte.
A short description of data set [2]: Induction of hemolysis in rat RBC assessed as hemoglobin release at 64 ug/ml after 1 hr by microplate reader analysis. The class given is cell-based, Erythrocyte. Conditions: red blood cells, read-out: Activity.
Data set [3] concerns Staphylococcus epidermidis. Briefly: Antibacterial activity against Staphylococcus epidermidis ATCC 35984 assessed as biofilm growth inhibition after 24 hrs by double dilution method. The class given is functional.
For data set [4], the system named is Streptococcus mutans. The data set is described as follows: Antibacterial activity against Streptococcus mutans UA159 assessed as biofilm growth inhibition after 24 hrs by double dilution method. The class given is functional.
The test system of data set [5] is Shigella sonnei. Briefly: Antibacterial activity against O-antigen negative Shigella sonnei clinical isolate 6831 assessed as growth inhibition after 24 hrs by double dilution method. It is filed as functional. The following applies: isolate 6831, 24 h.
The test system of data set [6] is Shigella sonnei. Briefly: Antibacterial activity against O-antigen positive Shigella sonnei clinical isolate 6831 assessed as growth inhibition after 24 hrs by double dilution method. The following applies: isolate 6831, 24 h. The class given is functional.
The subject of another data set is Pseudomonas aeruginosa. Briefly: Antibacterial activity against Pseudomonas aeruginosa ATCC 33347 assessed as growth inhibition after 24 hrs by double dilution method. The class given is functional. Conditions: ATCC 33347, 24 h.
Data set [7] relates to Staphylococcus epidermidis. Briefly: Antibacterial activity against Staphylococcus epidermidis ATCC 12228 assessed as growth inhibition after 24 hrs by double dilution method. The class given is functional. The following applies: ATCC 12228, 24 h.
Data set [8] has as its system Staphylococcus epidermidis. Briefly: Antibacterial activity against Staphylococcus epidermidis ATCC 35984 assessed as growth inhibition after 24 hrs by double dilution method. The class given is functional. The following applies: ATCC 35984, 24 h.
Data set [9] deals with Staphylococcus aureus. Briefly: Antibacterial activity against Staphylococcus aureus ATCC 9144 assessed as growth inhibition after 24 hrs by double dilution method. It is filed as functional. Conditions: ATCC 9144, 24 h.
The next data set has as its system Enterococcus faecalis. Briefly: Antibacterial activity against Enterococcus faecalis ATCC 29212 assessed as growth inhibition after 24 hrs by double dilution method. The class given is functional. The following applies: ATCC 29212, 24 h.
The test system of the next data set is Enterococcus. The data set is described as follows: Antibacterial activity against vancomycin-resistant Enterococcus assessed as growth inhibition after 24 hrs by double dilution method. It is filed as functional.
Data set [10] concerns Streptococcus mutans. Briefly: Antibacterial activity against Streptococcus mutans UA159 assessed as growth inhibition after 24 hrs by double dilution method. Conditions: UA159, 24 h. It is filed as functional.
Data set [11] concerns Staphylococcus aureus. The data set is described as follows: Antibacterial activity against Methicillin-resistant Staphylococcus aureus assessed as growth inhibition after 24 hrs by double dilution method. It is filed as functional.
Data set [12] can be described thus: Antibacterial activity against Streptococcus pyogenes serotype M12 strain MGAS9429 assessed as growth inhibition after 24 hrs by double dilution method. The class given is functional. Conditions: MGAS9429, 24 h.
Data set [13] in a line: Induction of hemolysis in rat RBC assessed as hemoglobin release at 32 to 128 ug/ml after 1 hr by microplate reader analysis. The following applies: erythrocyte. The class given is cell-based.

Structures are written as SMILES. Converted amounts (≈) assume the structure as drawn.

Consider `CCCCCCCCCCCCC(=O)NC[C@H]1O[C@H](O[C@@H]2[C@@H](O)[C@H](O[C@H]3O[C@H](CN)[C@@H](O)C[C@H]3N)[C@@H](N)C[C@H]2N)[C@H](O)[C@@H](N)[C@@H]1O`, for which the hemolysis at 1 h, 128 ug/ml in data set [1] amounted to 10.2%. Moreover, in data set [2], the hemolysis at 1 h, 64 ug/ml was 0%. Moreover, the MBIC (in data set [3]; in the data set on Streptococcus mutans [4]) was 8 µg/mL each time. For the same molecule, the MIC in the data set with Shigella sonnei [5] was 128 µg/mL (≈ 193 µM); with Shigella sonnei [6], 128 µg/mL (≈ 193 µM); in the data set with Pseudomonas aeruginosa, 32 µg/mL (≈ 48.3 µM); in data set [7], 8 µg/mL (≈ 12.1 µM); in data set [8] it was 8 µg/mL (≈ 12.1 µM); in the data set with Staphylococcus aureus [9], 16 µg/mL (≈ 24.1 µM). The minimum inhibitory concentration (MIC) with Enterococcus faecalis was 128 µg/mL (≈ 193 µM); in the data set on Enterococcus, 64 µg/mL (≈ 96.5 µM); in the data set on Streptococcus mutans [10] it was 4 µg/mL (≈ 6.03 µM); in the data set on Staphylococcus aureus [11], 128 µg/mL (≈ 193 µM); in [12], 16 µg/mL (≈ 24.1 µM).

Consider `CCCCCCCCCCCCS(=O)(=O)C[C@H]1O[C@H](O[C@@H]2[C@@H](O)[C@H](O[C@H]3O[C@H](CN)[C@@H](O)C[C@H]3N)[C@@H](N)C[C@H]2N)[C@H](O)[C@@H](N)[C@@H]1O`, for which the Activity result in [13] is given as “Toxic”. Further, the MBIC in data set [3] was 32 µg/mL; in the data set on Streptococcus mutans [4], 16 µg/mL. Besides, the minimum inhibitory concentration (MIC) in the data set with Shigella sonnei [5] is > 128 µg/mL; in the data set with Shigella sonnei [6], > 128 µg/mL; in the data set with Pseudomonas aeruginosa, > 128 µg/mL; in [7], 128 µg/mL (≈ 187 µM); in [8], 64 µg/mL (≈ 93.6 µM); in the data set on Staphylococcus aureus [9] it was 64 µg/mL (≈ 93.6 µM). For the same molecule, the minimal inhibitory concentration (MIC) was > 128 µg/mL in the data set with Enterococcus faecalis; 64 µg/mL (≈ 93.6 µM) in the data set on Enterococcus; 16 µg/mL (≈ 23.4 µM) in the data set on Streptococcus mutans [10]; > 128 µg/mL in the data set on Staphylococcus aureus [11]; 32 µg/mL (≈ 46.8 µM) in data set [12].
